How the values were obtained:
[1] = tested on: NNK-induced lung tumorigenesis in A/J mice; assay: NNK-induced lung tumorigenesis in A/J mice; type: in vivo; details: 25 mg/kg nebulized 30 min/day for eight weeks
Procedure: Induction of lung tumorigenesis by intraperitoneal (i.p.) injection on days 1, 3, and 5 with 50 mg/kg of NNK dissolved in saline was followed by nebulization of PB141 (25 mg/kg) or vehicle (saline) and delivery to cage air via a micropump nebulizer. After 8 weeks the lung was examined histologically following H&E staining. (A) Number of lung lesions. (B) Histology showing lung tumor incidence and burden. Data are representative of one of two independent experiments with n=9-11 mice per group.
A/J mice were injected intraperitoneally on days 1, 3, and 5 with 50 mg/kg of 4-methylnitrosamino-1-(3-pyridyl)-1-butanone (NNK; Chemsyn Science Laboratories, Lenexa, Kans.) dissolved in saline. The mice were then held for 8 weeks to allow development of preinvasive lesions: alveolar hyperplasias and adenomas. […]
Mice were euthanized following the eight-week treatment period. […] Lung lesions were quantified by determining the incidence and prevalence of pulmonary pleural surface tumors, counting both the right and left lungs of each mouse. […] Hyperplastic and neoplastic lesions of the lungs were scored according to the International Classification of Rodent Tumors in 6 or 7 sections per lung. Sections were further assessed for morphometry and Ki67 immunohistochemistry.

[2] = tested on: lung epithelial cells (BEAS2B); assay: IFN-γ or IL-4/IL-13 stimulated lung epithelial cells; type: cell-based; details: 10 ng/ml IFN-γ or IL-4/IL-13 for 6 h
Source text: It suppressed the infiltration of inflammatory cells into the airspace and lung and attenuated the expression of cytokines, chemokines, and IgE in BALF and serum.

[3] = tested on: OVA allergen-induced asthma in mice; assay: Ovalbumin-induced asthma model; type: in vivo; details: 25 mg/kg nebulized 30 min after each OVA challenge
Procedure: Allergen-induced asthma was produced in mice by initial sensitization by intraperitoneal (i.p.) injection of OVA on days 0 and 7 and challenge by intratracheal injection of OVA on even-numbered days 14 through 22. Thirty minutes following each OVA challenge, PB141 (25 mg/kg) or vehicle (saline) was nebulized and delivered to cage air via a micropump nebulizer. Twenty-four hours after the last challenge and nebulization; airway hyperresponsiveness to increasing concentrations of inhaled methacholine was determined by the forced oscillation (flexiVent) method. (A) Airway resistance. (B) Airway elastance. Data are representative of one of two independent experiments with n=6-8 mice per group.
Allergen induced asthma was produced in mice by initial sensitization by intraperitoneal (i.p.) injection of OVA on days 0 and 7 and challenge by intratracheal injection of OVA on even-numbered days 14 through 22. Thirty minutes after each OVA challenge, PB141 (25 mg/kg) or vehicle (saline) was nebulized and delivered to cage air via a micropump nebulizer. Twenty-four hours following the last challenge and nebulization, BAL fluid, plasma, and lung samples were obtained. (A) Total and differential cell count in BAL fluid. (B) Microscopic examination following staining of BAL fluid. (C) H2O2 production, (D) Protein concentration in BAL fluid. Data are representative of one of two independent experiments with n=7-10 mice per group; *** p<0.001.
Allergen-induced asthma was produced in mice by initial sensitization by intraperitoneal (i.p.) injection of OVA on days 0 and 7 and challenge by intracheal injection of OVA on even-numbered days 14 through 22. Thirty minutes after each OVA challenge, PB141 (25 mg/kg) or vehicle (saline) was nebulized and delivered to cage air via a micropump nebulizer. Twenty-four hours following the last challenge and nebulization lung samples were obtained. The lung was examined histologically following (A) H&E staining, (B) trichrome staining, and (C) periodic acid Schiffs (PAS) staining. Data are representative of one of two independent experiments with n=7-10 mice per group.
Allergen induced asthma was produced in mice by initial sensitization by intraperitoneal injection of OVA on days 0 and 7 and challenge by intratracheal injection of OVA on even-numbered days 14 through 22. […] Twenty-four hours following the last challenge and nebulization. airway hyperresponsiveness to methacholine challenge was measured noninvasively by whole body plethysmography (WBP; Buxco Research Systems, Wilmington, N.C.) and, invasively by computer-controlled ventilator (flexiVent; SCIREQ Inc., Montreal, Canada). Cellular Infiltration into the airspace was assessed by measuring myeloperoxidase activity in the lung and the number of polymorphonuclear neutrophils and eosinophils in bronchoalveolar lavage fluid (BALF). Lung inflammation was assessed by vascular permeability, edema, and cytokine generation. Anti-OVA IgE concentrations in the serum were measured using an ELISA kit (MD Bioproducts, St. Paul, Minn.). Lung histology sections were assessed by morphometry, with May-Grünwald-Giemsa or Periodic acid-Schiff (PAS) staining used for detection of mucopolysaccharide accumulation, Sirius Red or Masson's trichrome staining for detection of collagen deposition, and hematoxylin and eosin (H&E) staining for assessment of inflammation. Lung collagen content was determined by quantifying soluble collagen with the Sircol Collagen Assay Kit (Biocolor).

[4] = TRAP assay (quenching of ABTS+ radical cation); type: biochemical; details: 10 μmol compound, 5 min, absorbance 734 nm; Troxol reference
Procedure: The anti-oxidant activities of PB 141 were determined by the ability of this compound to react with pre-formed radical monocation of 2,2′-azinobis-(3-ethylbenzothiazoline)-6-sulfonic acid (ABTS^+). Data are representative of one of two independent experiments; n=3; *** P<0.001 versus Troxol.
The anti-oxidant activity of PB141 or PB157 was determined by the ability of these compounds to react with the pre-formed radical monocation of 2,2′-azinobis-(3-ethylbenzothiazoline)-6-sulfonic acid (ABTS^+). ABTS (1.8 mmol) was reacted overnight with potassium persulfate (0.63 mmol) in double distilled water, at room temperature in the dark, to generate the dark blue ABTS^+ radical cation. This radical cation has a maximum absorption at 734 nm. Immediately prior to the experiment, ABTS^+ was diluted with absolute ethanol to an absorbance of approximately 0.7 at 734 nm. PB141 or PB157 (10 μmol) was added to ABTS^+ (1 ml) and mixed by vortexing. The reaction was allowed to stabilize for 5 min and the absorbance was measured. The anti-oxidant activities of these compounds were determined by their ability to quench the color of the radical cation. Troxol (10 μmol) was used as reference standard.

In the case of `CC(=O)N[C@@H](CSC(CC(=O)CC(SC[C@H](NC(C)=O)C(=O)O)c1cnccn1)c1cnccn1)C(=O)O` (stereo partly shown) [PB141], the “Inhibition of tumor progression, premalignant lung cancer, and cell proliferation” value [1] is reported as roughly 40%, the Cytokine generation [2] is reported as “inhibited” and the NO production [2] is reported as “inhibited”. The iNOS expression [2] was “inhibited”, the “Airway hyperresponsiveness to methacholine” value [3] was “significantly suppressed” and the Airway remodeling [3] was “lessening”. The “Expression of cytokines, chemokines, and IgE in BALF and serum” value [3] was “attenuated”, the “Infiltration of inflammatory cells into the airspace and lung” value [3] was “suppressed” and the Mucus accumulation [3] was “lessening”. For the same compound, the “Anti-oxidant activity (ability to quench ABTS+ radical cation)” value [4] was “clearly demonstrated”.
